From patent US12448388B2, “PRMT5 inhibitors and uses thereof” (Gilead Sciences, Inc., priority 2023, dated 2025)

Target: T1, hERG (Homo sapiens, UniProt Q12809)
T1 construct: host or cells: HEK293
Assay: hERG assay (automated patch clamp, QPatch HT)
Type: cell-based
Conditions: human, HEK293 cells stably expressing hERG, * = accurate hERG measurement may be limited by compound solubility
Procedure: Cell lines and cell culture: The HEK293 cell line stably expressing the hERG ion channel was provided from Charles River laboratories. Cells were maintained in tissue culture incubators per Charles River Laboratories SOP. Stocks were maintained in cryogenic storage. HEK293 cells were stably transfected with hERG cDNA.
Automated Patch Clamp Procedures: In preparation for a recording session, intracellular solution was loaded into the intracellular compartments of the QPlate and cell suspension was pipetted into the extracellular compartments. After establishment of a whole-cell configuration, membrane currents were recorded using up to 48 parallel patch clamp amplifiers in the QPatch HT® system. The current records were sampled at 2000 Hz and low-pass Bessel filtered at 400 Hz.
Valid whole-cell recordings met the following criteria: • 1. Membrane resistance ≥200 MΩ. • 2. Leak current 25% channel current or subtracted.
hERG Test Procedures: Onset and block of hERG current was measured using a stimulus voltage pattern consisting of a 500 ms prepulse to −40 mV (leakage subtraction), a 2-second activating pulse to +40 mV followed by a 2-second test pulse to −40 mV. The pulse pattern was repeated continuously at 10 s intervals from a holding potential of −80 mV. Peak tail current was measured during the −40 mV test pulse. Leakage current was calculated from the current amplitude evoked by the −40 mV prepulse and subtracted from the total membrane current record.
Data Analysis: Data acquisition and analysis were performed using the QPatch Assay Software (Sophion Bioscience A/S, Denmark). Steady state was defined by the limiting constant rate of change with time (linear time dependence). The steady state before and after test article application were used to calculate the percentage of current inhibited at each concentration. Run down, a time-dependent reduction of current amplitude, may be compensated for in the QPatch Assay Software using standard system tools. Concentration-response data was fit to an equation of the following form: […]
Where [Test] is the concentration of test compound, IC50 is the concentration of the test compound producing half-maximal inhibition, N is the Hill coefficient and % Block is the percentage of current inhibited at each concentration of the test article. Nonlinear least squares fits will be solved with the Solver add-in for Excel 2000 or later (Microsoft, Redmond, WA).

T1 sequence (Q12809 whole entry): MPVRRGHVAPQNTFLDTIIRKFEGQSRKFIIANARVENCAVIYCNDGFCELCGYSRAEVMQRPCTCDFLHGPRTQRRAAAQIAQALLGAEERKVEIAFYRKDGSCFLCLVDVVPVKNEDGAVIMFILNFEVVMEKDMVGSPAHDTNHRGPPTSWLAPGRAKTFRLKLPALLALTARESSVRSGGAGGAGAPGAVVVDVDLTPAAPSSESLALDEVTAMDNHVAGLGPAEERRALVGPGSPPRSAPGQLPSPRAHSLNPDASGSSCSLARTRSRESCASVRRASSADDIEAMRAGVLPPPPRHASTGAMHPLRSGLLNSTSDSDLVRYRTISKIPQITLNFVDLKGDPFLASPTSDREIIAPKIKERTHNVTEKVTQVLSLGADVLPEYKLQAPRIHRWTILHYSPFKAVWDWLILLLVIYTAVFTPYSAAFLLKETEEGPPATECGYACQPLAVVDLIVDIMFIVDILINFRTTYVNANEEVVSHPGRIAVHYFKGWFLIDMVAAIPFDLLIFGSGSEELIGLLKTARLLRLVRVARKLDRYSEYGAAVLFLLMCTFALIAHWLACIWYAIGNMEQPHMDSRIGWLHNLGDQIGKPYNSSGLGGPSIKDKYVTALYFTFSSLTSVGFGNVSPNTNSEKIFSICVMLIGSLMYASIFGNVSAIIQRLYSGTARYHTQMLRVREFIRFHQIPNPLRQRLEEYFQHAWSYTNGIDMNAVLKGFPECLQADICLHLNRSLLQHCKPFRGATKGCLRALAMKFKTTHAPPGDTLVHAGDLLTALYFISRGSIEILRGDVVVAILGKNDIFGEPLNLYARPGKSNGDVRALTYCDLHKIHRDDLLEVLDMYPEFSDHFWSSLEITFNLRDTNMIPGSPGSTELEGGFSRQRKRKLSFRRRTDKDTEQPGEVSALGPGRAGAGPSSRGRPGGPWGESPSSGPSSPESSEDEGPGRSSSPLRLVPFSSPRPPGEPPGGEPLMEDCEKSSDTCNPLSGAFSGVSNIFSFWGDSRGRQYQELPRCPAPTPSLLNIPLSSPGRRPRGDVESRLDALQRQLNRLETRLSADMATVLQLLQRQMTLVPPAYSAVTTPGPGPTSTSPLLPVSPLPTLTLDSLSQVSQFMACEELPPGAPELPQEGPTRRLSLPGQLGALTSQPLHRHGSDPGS

Question: With `Nc1nc2cnc(C(=O)N3CC4(CC4)C[C@@H]4Oc5cc(C(F)(F)F)ccc5[C@@H]43)cc2n2cncc12` [Ff-648, (4-aminoimidazo[1,5-a]pyrido[3,4-e]pyrazin-8-yl)((4aS,9bS)-7-(trifluoromethyl)-4a,9b-dihydro-2H-spiro[benzofuro[3,2-b]pyridine-3,1′-cyclopropan]-1(4H)-yl)methanone] as the molecule, how does the IC50 read?
Answer: 30 µM
